Data from paper PMC13266984 (Journal of medicinal chemistry, 2026).

Molecular target: T1, Human ALDH3A1 (Homo sapiens, UniProt P30838)
T1 sequence (P30838 1-453): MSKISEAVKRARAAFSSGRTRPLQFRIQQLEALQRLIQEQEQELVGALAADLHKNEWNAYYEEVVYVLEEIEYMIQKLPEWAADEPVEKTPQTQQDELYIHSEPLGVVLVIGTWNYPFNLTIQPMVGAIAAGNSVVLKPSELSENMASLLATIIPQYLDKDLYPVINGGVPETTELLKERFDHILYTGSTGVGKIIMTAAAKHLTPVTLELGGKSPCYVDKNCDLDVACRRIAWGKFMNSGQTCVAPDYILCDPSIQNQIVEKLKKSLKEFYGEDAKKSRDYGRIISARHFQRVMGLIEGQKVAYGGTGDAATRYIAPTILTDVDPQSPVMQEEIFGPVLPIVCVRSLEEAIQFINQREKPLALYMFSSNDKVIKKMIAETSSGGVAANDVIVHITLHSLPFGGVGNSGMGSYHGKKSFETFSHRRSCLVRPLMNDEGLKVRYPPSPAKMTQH
Test: ALDH3A1 biochemical assay (benzaldehyde/NADP+, diaphorase-resazurin readout, 1,536-well)
Conditions: for CC-v2: curve class

Structure (SMILES) | AC50 [µM] | Efficacy (Table S1, primary screen) | CC-v2 (Table S1, primary screen) | Efficacy (Table S2, in-house analogs) | CC-v2 (Table S2, in-house analogs) | Efficacy (ALDH3A1 biochemical) [%] | IC50 (ALDH3A1 biochemical IC50, text) [µM] | LLE (Table S7, pAC50 − cLogP)
COc1ccc(CCC(=O)N2CCc3[nH]c(=O)c(C#N)cc3C2)c(OC)c1OC [NCGC00527314-01] | 35.5 | -47.14 | -2.4 | – | – | – | – | –
O=C(NCc1ccccc1)c1csc(N2CCN(c3ccc(Cl)cc3)CC2)n1 [NCGC00430698-01] | 2 | – | – | -75.40 | -1.2 | – | – | –
C=CCOc1c(OC)ccc2c1CN(Cc1ccccc1)C(=O)CCN2CC(O)COc1ccc(OC)cc1 (stereo not drawn) [NCGC00501442-01] | 8.91 | -29.51 | -1.4 | – | – | – | – | –
Cc1cc(Cl)ccc1-n1nc(C)c([C@@H]2C=C[C@@H](NC(=O)c3ccc(N(C)C)cc3)C2)c1C [NCGC00394621-01] | 3.98 | – | – | -97.74 | -1.1 | – | – | –
CNC(=O)c1cccc(-c2cnc(Nc3cncnc3)c3c2CCO3)c1 [NCGC00412778-01] | 44.7 | -38.45 | -2.2 | – | – | – | – | –
CNC(=O)c1cccc(-c2cnc3[nH]cc(CC(=O)N(C)c4ccccc4)c3c2)c1 [NCGC00412252-01] | 0.25 | – | – | -26.81 | -1.4 | – | – | –
Cc1ccc2[nH]c(CO[C@H]3CN(Cc4ccc(F)c(F)c4)C[C@H]3F)nc2c1 [NCGC00392991-01] | 4.47 | – | – | -26.14 | -2.4 | – | – | –
COc1cccc(N2CCN(c3nc(C(=O)NCc4cccnc4)cs3)CC2)c1 [NCGC00430684-01] | 14.1 | – | – | -68.54 | -2.2 | – | – | –
CN1CCOc2c(C(=O)NCCC(N)=O)cc(-c3ccc(O)c(F)c3)cc21 [NCGC00417031-01] | 14.1 | – | – | -80.78 | -2.2 | – | – | –
COc1ccc(OCc2cc(C(=O)NC(CO)C(C)C)no2)c2ccccc12 (stereo not drawn) [NCGC00427669-01] | 3.98 | -69.95 | -1.2 | – | – | – | – | –
Cc1ccc2nc(CN3CCC(c4cccc(C#N)c4)CC3)cc(O)c2c1 [NCGC00449346-01] | 4.47 | -31.03 | -1.2 | – | – | – | – | –
Cc1cccc(CNC(=O)c2csc(N3CCN(c4ccccc4)CC3)n2)c1 [NCGC00430642-01] | 1.41 | – | – | -74.85 | -1.2 | 74 | 1.41 | 2.143
COc1ccc(-n2nc(C)c([C@@H]3C=C[C@@H](NCc4cccc(Cl)c4)C3)c2C)cc1 [NCGC00391691-01] | 22.4 | – | – | -46.23 | -2.2 | – | – | –
O=C(NCc1ccncc1)c1csc(N2CCN(c3ccccc3F)CC2)n1 [NCGC00430720-01] | 15.8 | – | – | -57.30 | -2.2 | – | – | –
COC(=O)c1ccc2nc(CO[C@H]3CN(C(=O)C4CCOCC4)C[C@H]3F)[nH]c2c1 [NCGC00392526-01] | 28.2 | – | – | -67.89 | -3 | – | – | –
CC(O)c1ccc(CCNC(=O)C(=O)Nc2cc3c4c(c2)CC(=O)N4CCC3)s1 (stereo not drawn) [NCGC00529385-01] | 11.2 | -31.52 | -2.2 | – | – | – | – | –
C[S+](=O)([O-])c1ccc(CN2C[C@H](O)C[C@H]2c2nc(C3CC3)no2)cc1 [NCGC00396353-01] | 35.5 | -44.61 | -2.2 | – | – | – | – | –
COc1ccc(-n2nc(C)c([C@@H]3C=C[C@@H](NCc4ccccc4)C3)c2C)cc1 [NCGC00391544-01] | 25.1 | – | – | -31.39 | -2.4 | – | – | –
CNC(=O)c1cccc(-c2cnc3[nH]cc(CC(=O)NCC(C)C)c3c2)c1 [NCGC00412294-01] | 12.6 | – | – | -83.58 | -1.1 | – | – | –

Structure (SMILES) | AC50 [µM] | Efficacy (Table S1, primary screen) | CC-v2 (Table S1, primary screen) | Efficacy (Table S2, in-house analogs) | CC-v2 (Table S2, in-house analogs) | Efficacy (ALDH3A1 biochemical) [%] | IC50 (ALDH3A1 biochemical IC50, text) [µM] | LLE (Table S7, pAC50 − cLogP)
COCC(=O)Nc1ncncc1-c1noc([C@@H]2CCCN2Cc2cc(OC)c(OC)c(OC)c2)n1 [NCGC00394846-01] | 15.8 | -70.18 | -2.2 | – | – | – | – | –
COc1ccc(NC2CCCN(C(=O)c3cn(CCCN)nn3)C2)cc1 (stereo not drawn) [NCGC00439852-01] | 0.89 | -61.76 | -1.2 | – | – | – | – | –
O=C(NCc1ccc(F)cc1)c1csc(N2CCN(c3ccccc3F)CC2)n1 [NCGC00430726-01] | 2 | – | – | -64.54 | -1.2 | – | – | –
COCc1noc(-c2ccc(NC[C@H]3CCc4ccccc4O3)nc2)n1 [NCGC00428876-01] | 31.6 | -39.16 | -2.2 | – | – | – | – | –
O=C(NCc1cccs1)c1csc(N2CCN(c3ccccc3F)CC2)n1 [NCGC00430730-01] | 6.31 | – | – | -78.52 | -1.2 | – | – | –
NC(=O)[C@H](Cc1ccc(O)cc1)NC(=O)[C@@]1(O)C[C@@H](O)[C@H](O)[C@@H](NC(=O)c2ccc(F)c(Cl)c2)C1 [NCGC00398197-01] | 35.5 | -17.95 | -2.4 | – | – | – | – | –
Cc1cc(C)c(C)c([S+](=O)([O-])NCCC(=O)N2CCc3[nH]c(=O)c(C#N)cc3C2)c1C [NCGC00527311-01] | 28.2 | -52.11 | -2.2 | – | – | – | – | –
COc1cccc(N2CCN(c3nc(C(=O)NCc4ccco4)cs3)CC2)c1 [Compound 3] | 12.6 | – | – | -54.71 | -2.2 | – | – | –
COCc1nc(N2CCC(Cn3cccn3)CC2)cc([C@H]2C[C@H](N)C2)n1 [NCGC00422389-01] | 15.8 | -81.78 | -3 | – | – | – | – | –
COc1ccc(N2CCN(c3nc(C(=O)NCc4ccccc4C)cs3)CC2)cc1 [NCGC00430666-01] | 3.55 | – | – | -54.85 | -1.2 | – | – | –
CN(C)CC1(O)CCN(C(=O)Cn2cc(C(=O)C3CC3)c3ccccc32)C1 (stereo not drawn) [NCGC00438461-01] | 35.5 | -41.61 | -2.4 | – | – | – | – | –
COc1ccc(CN2C[C@@H](F)[C@@H](OCc3nc4cnccc4[nH]3)C2)cc1 [NCGC00391075-01] | 15.8 | – | – | -69.78 | -2.4 | – | – | –
COc1ccc(N2CCN(c3nc(C(=O)NCC4CCCCC4)cs3)CC2)cc1 [NCGC00430670-01] | 0.25 | – | – | -27.44 | -1.4 | – | – | –
COc1cccc(-c2cc(C(=O)NCc3cnn(C)c3)c3c(c2)N(C)CCO3)c1OC [NCGC00417015-01] | 17.8 | – | – | -40.16 | -2.2 | – | – | –
Cc1cc(=O)[nH]c(N2CCC(NC(=O)NCc3ccco3)CC2)n1 [NCGC00530028-01] | 20 | -57.15 | -2.2 | – | – | – | – | –
O=C(NCC(F)(F)F)c1cc(C2CCN(C(=O)c3cc(-c4ccco4)n[nH]3)CC2)n[nH]1 [NCGC00528999-01] | 14.1 | -59.29 | -2.4 | – | – | – | – | –
Cc1nn(CCC#N)c(C)c1[C@@H]1C=C[C@@H](NC(=O)Nc2ccc(Cl)cc2)C1 [NCGC00399959-01] | 28.2 | – | – | -62.15 | -2.2 | – | – | –
CN1CCOc2c(C(=O)NCc3cccnc3)cc(-c3cnn(C)c3)cc21 [NCGC00417099-01] | 0.79 | – | – | -54.49 | -1.4 | – | – | –
Cc1ccc(-n2nc(C)c([C@@H]3C=C[C@@H](NCc4ccc(N(C)C)cc4)C3)c2C)cc1Cl [NCGC00395823-01] | 14.1 | – | – | -101.87 | -2.1 | – | – | –
